Common to all, as to format: cell-based
Experiment [1] has as its target T1, α-1B adrenoceptor (rat spleen) (Rattus norvegicus, UniProt P15823).
T1 construct: PE-induced contraction of rat spleen; from tissue; host or cells: rat spleen
T1 sequence (P15823 1-515): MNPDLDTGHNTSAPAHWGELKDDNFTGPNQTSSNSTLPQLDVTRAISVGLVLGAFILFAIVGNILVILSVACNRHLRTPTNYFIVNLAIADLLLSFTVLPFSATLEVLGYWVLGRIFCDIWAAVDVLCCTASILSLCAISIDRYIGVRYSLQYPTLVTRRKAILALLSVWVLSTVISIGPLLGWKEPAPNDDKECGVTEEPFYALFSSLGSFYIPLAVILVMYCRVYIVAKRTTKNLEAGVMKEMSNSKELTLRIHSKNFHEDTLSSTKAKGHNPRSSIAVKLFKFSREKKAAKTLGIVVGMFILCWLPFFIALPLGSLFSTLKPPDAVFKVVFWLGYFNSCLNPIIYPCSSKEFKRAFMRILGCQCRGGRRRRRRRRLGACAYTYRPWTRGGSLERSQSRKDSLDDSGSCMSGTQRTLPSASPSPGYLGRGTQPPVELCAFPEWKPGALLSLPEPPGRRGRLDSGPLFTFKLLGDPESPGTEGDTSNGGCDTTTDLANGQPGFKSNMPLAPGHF
As to the kind of experiment: Functional antagonism: phenylephrine (PE)-induced contraction of rat spleen. As to conditions: vs phenylephrine, Schild plot; for Kb: read-out: pA2 Rat Spleen [α-1B] (converted). The source says: (§1) Functional assays indicative of pharmacologically defined α-1 adrenoceptors were used to further characterize compounds. Inhibition of phenylephrine (PE)-induced contraction of canine prostate smooth muscle can be correlated with α-1A adrenoceptor activation. […] For each of these models, agonist dose response curves were repeated against increasing concentrations of test agent to derive a Schild plot [log ([…]) against log (molarity of test agent)] to determine the pA2.

Experiment [2] has as its target T2, α-1A adrenoceptor (rat vas deferens) (Rattus norvegicus, UniProt P43140).
T2 construct: PE-induced contraction of rat vas deferens; from tissue; host or cells: rat vas deferens
T2 sequence (P43140 1-466): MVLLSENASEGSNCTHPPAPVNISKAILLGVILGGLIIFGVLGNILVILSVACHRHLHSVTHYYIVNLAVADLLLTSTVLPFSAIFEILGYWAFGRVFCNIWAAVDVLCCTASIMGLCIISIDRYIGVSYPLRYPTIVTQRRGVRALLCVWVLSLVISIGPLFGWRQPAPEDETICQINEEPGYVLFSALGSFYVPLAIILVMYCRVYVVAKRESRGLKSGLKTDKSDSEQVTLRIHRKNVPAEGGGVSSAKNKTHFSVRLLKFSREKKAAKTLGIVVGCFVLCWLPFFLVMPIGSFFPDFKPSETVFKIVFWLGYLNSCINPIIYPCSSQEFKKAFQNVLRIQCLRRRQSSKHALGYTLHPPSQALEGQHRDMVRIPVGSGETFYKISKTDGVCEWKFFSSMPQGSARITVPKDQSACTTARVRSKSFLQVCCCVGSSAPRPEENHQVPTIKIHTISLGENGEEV
The experiment can be described thus: Functional antagonism: phenylephrine (PE)-induced contraction of rat vas deferens. The settings on record: vs phenylephrine, Schild plot; for Kb: read-out: pA2 Rat Vas Deferens [α-1A] (converted).
Source text: as §1

Experiment [3] concerns the target T3, α-1A adrenoceptor (dog prostate) (Canis lupus, UniProt A0A8I3NK63).
T3 sequence (A0A8I3NK63 1-466): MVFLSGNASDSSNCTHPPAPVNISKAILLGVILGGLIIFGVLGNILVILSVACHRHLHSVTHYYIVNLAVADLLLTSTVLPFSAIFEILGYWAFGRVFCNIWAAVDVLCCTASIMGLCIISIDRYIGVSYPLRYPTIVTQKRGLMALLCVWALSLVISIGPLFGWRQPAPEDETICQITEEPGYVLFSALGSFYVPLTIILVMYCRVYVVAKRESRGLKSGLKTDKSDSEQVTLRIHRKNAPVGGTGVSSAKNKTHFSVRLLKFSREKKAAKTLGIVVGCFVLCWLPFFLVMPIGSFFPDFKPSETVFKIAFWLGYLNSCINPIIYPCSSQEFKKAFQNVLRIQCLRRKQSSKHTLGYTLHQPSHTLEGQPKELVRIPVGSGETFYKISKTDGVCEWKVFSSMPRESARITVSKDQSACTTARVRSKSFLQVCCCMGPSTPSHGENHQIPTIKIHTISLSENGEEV
The experiment can be described thus: Functional antagonism: phenylephrine (PE)-induced contraction of canine prostate strips. The settings on record: Table 2a; vs phenylephrine; Schild plot. The procedure, abridged:
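Canine prostate smooth-muscle strips in vitro, contracted by phenylephrine. Agonist dose–response curves repeated at rising test-agent concentrations; pA2 derived by Schild plot […].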

Structures can show the parent of a compound that is named as a salt.

For the compound `COc1cccc2c1CC[C@H]1CN(CCn3c(=O)[nH]c4c(sc5ccccc54)c3=O)C[C@@H]21` [Example 9, hydrochloride], the Kb was 25.7 nM in experiment [1] and 1.95 nM in experiment [2]. Besides, the “pA2 Dog Prostate [α-1A]” value in experiment [3] was 8.63.

As to `COc1cccc2c1CC[C@H]1CN(CCn3c(=O)[nH]c4c([nH]c5ccccc54)c3=O)C[C@@H]21` (relative stereo) [Example 14, hydrochloride], the Kb in experiment [1] was 23.4 nM; in experiment [2], 2.69 nM. The “pA2 Dog Prostate [α-1A]” value in experiment [3] was 8.23.

For `COc1cccc2c1CC[C@H]1CN(CCn3c(=O)c4sc5nccnc5c4n(C(C)C)c3=O)C[C@@H]21` [Example 90, hydrochloride], the Kb in experiment [1] is 26.9 nM; in experiment [2] it was 1.45 nM. In addition, the “pA2 Dog Prostate [α-1A]” value in experiment [3] is given as 9.05.

Turning to `COc1cccc2c1CC[C@H]1CN(CCn3c(=O)[nH]c4c(sc5ccc(O)nc54)c3=O)C[C@@H]21` [Example 107, dihydrochloride], the Kb is 37.2 nM in experiment [1] and 20 nM in experiment [2]. Besides, the “pA2 Dog Prostate [α-1A]” value in experiment [3] is 9.22.

Turning to `COc1cccc2c1CC[C@@H]1CN(CCn3c(=O)[nH]c4c(sc5ccccc54)c3=O)C[C@@H]21` (relative stereo) [Example 10, 3-[2-(trans-6-Methoxy-2,3,3a,4,5,9b-hexahydro-[[1H]-benz[e]isoindol-1-yl)ethyl]-[1]benzothieno[3,2-d]pyrimidine-2,4(1H,3H)-dione hydrochloride], the results for the Kb in experiment [1] and in experiment [2] were 30.2 nM and 3.09 nM, respectively. Moreover, the “pA2 Dog Prostate [α-1A]” value in experiment [3] was 8.37.

Take `COc1cccc2c1CC[C@H]1CN(CCn3c(=O)c4sc5ccccc5c4n(C)c3=O)C[C@@H]21` (relative stereo) [Example 11, hydrochloride]: the values for the Kb in experiment [1] and in experiment [2] were 51.3 nM and 2.82 nM, respectively. Moreover, the “pA2 Dog Prostate [α-1A]” value in experiment [3] is 8.57.

For `COc1cccc2c1CC[C@H]1CN(CCn3c(=O)[nH]c4c(oc5ncccc54)c3=O)C[C@@H]21` [Example 76, hydrochloride], the Kb in experiment [1] was 23.4 nM; in experiment [2] it was 25.1 nM. Further, the “pA2 Dog Prostate [α-1A]” value in experiment [3] is given as 8.74.

Take `COc1cccc2c1CC[C@H]1CN(CCn3c(=O)[nH]c4c(sc5nccnc54)c3=O)C[C@@H]21` [Example 39]: the “pA2 Rat Spleen [α-1B]” value in experiment [1] was found to be 7.76. Also, the “pA2 Rat Vas Deferens [α-1A]” value in experiment [2] was 8.33. In experiment [3], the “pA2 Dog Prostate [α-1A]” value came out at 9.16.

In the case of `COc1cnc2c(n1)sc1c(=O)n(CCN3C[C@@H]4CCc5c(OC)cccc5[C@@H]4C3)c(=O)[nH]c12` [Example 89, hydrochloride], the Kb in experiment [1] was 7.76 nM; in experiment [2] it was 1.17 nM. Further, in experiment [3], the “pA2 Dog Prostate [α-1A]” value came out at 9.03.

Regarding `COc1cccc2c1CC[C@H]1CN(CCn3c(=O)[nH]c4c(ccc5ccccc54)c3=O)C[C@@H]21` (relative stereo) [Example 25, hydrochloride], the Kb was 174 nM in experiment [1] and 2.19 nM in experiment [2]. The “pA2 Dog Prostate [α-1A]” value in experiment [3] is recorded as 8.27.

On to `COc1cccc2c1CC[C@H]1CN(CCn3c(=O)[nH]c4c(sc5ncccc54)c3=O)C[C@@H]21` [Example 31, 3,2-((3aR,9bR)-cis-6-Methoxy-2,3,3a,4,5,9b-hexahydro-[1H]-benz[e]isoindol-1-yl))ethyl]-pyrido[3',2':4,5]thieno[3,2-d]pyrimidine-2,4(1H,3H)-dione hydrochloride], for which the Kb in experiment [1] is 17.4 nM; in experiment [2], 2.24 nM. The “pA2 Dog Prostate [α-1A]” value in experiment [3] was determined as 8.78.

`COc1cccc2c1[C@@H]1CN(CCn3c(=O)[nH]c4c(sc5ccccc54)c3=O)C[C@@H]1CC2` (relative stereo) [Example 5, 3-[2-(cis-9-Methoxy-2,3,3a,4,5,9b-hexahydro-[1H]-benz[e]isoindol-1-yl)ethyl]-[1]benzothieno[3,2-d]pyrimidine-2,4(1H,3H)-dione hydrochloride]: the Kb is 148 nM in experiment [1] and 13.8 nM in experiment [2]. For the same compound, the “pA2 Dog Prostate [α-1A]” value in experiment [3] is on record as 7.79.

In the case of `COc1cccc2c1CC[C@H]1CN(CCn3c(=O)[nH]c4c(oc5nccnc54)c3=O)C[C@@H]21` [Example 87, hydrochloride], the Kb in experiment [1] was 87.1 nM; in experiment [2] it was 18.2 nM. Further, the “pA2 Dog Prostate [α-1A]” value in experiment [3] is listed as 8.67.

For `COc1cccc2c1CC[C@H]1CN(CCn3c(=O)[nH]c4c(sc5ccccc54)c3=O)C[C@@H]21` (relative stereo) [Example 1, hydrochloride], the results for the Kb in experiment [1] and in experiment [2] were 21.4 nM and 4.27 nM, respectively. For the same compound, the “pA2 Dog Prostate [α-1A]” value in experiment [3] is on record as 8.74.

In the case of `COc1cccc2c1CC[C@H]1CN(CCn3c(=O)[nH]c4c(sc5ncccc54)c3=O)C[C@@H]21` (relative stereo) [Example 23, hydrochloride], the Kb was 151 nM in experiment [1] and 5.13 nM in experiment [2]. For the same compound, the “pA2 Dog Prostate [α-1A]” value in experiment [3] turned out to be 8.97.

`COc1cccc2c1CC[C@@H]1CN(CCn3c(=O)[nH]c4c(sc5ncccc54)c3=O)C[C@H]21` [Example 75, hydrochloride]: the Kb in experiment [1] was 79.4 nM; in experiment [2] it was 5.89 nM. Besides, in experiment [3], the “pA2 Dog Prostate [α-1A]” value turned out to be 8.04.

For `COCCOCCn1c(=O)n(CCN2C[C@@H]3CCc4c(OC)cccc4[C@@H]3C2)c(=O)c2sc3nccnc3c21` [Example 102, hydrochloride], the Kb is 17.4 nM in experiment [1] and 3.63 nM in experiment [2]. Also, the “pA2 Dog Prostate [α-1A]” value in experiment [3] was found to be 8.96.

Consider `COc1cccc2c1CC[C@@H]1CN(CCn3c(=O)[nH]c4c(sc5ccccc54)c3=O)C[C@H]21` [Example 8, 3-[2-((3aS,9bS)-cis-6-Methoxy-2,3,3a,4,5,9b-hexahydro-[1H]-benz[e]isoindol-1-yl)ethyl][1]benzothieno[3,2]pyrimidine-2,4(1H,3H)-dione hydrochloride], for which the Kb is 55 nM in experiment [1] and 17.4 nM in experiment [2]. Moreover, the “pA2 Dog Prostate [α-1A]” value in experiment [3] stood at 7.63.

As to `COc1cccc2c1CC[C@H]1CN(CCn3c(=O)[nH]c4c(sc5ccc(Cl)nc54)c3=O)C[C@@H]21` [Example 62, dihydrochloride], the figures for the Kb in experiment [1] and in experiment [2] were 21.9 nM and 0.724 nM, respectively. For the same compound, the “pA2 Dog Prostate [α-1A]” value in experiment [3] turned out to be 9.24.

Turning to `COc1ccc2sc3c(=O)n(CCN4C[C@@H]5CCc6c(OC)cccc6[C@@H]5C4)c(=O)[nH]c3c2n1` [Example 64, dihydrochloride], the Kb in experiment [1] is 25.1 nM; in experiment [2] it was 0.794 nM. The “pA2 Dog Prostate [α-1A]” value in experiment [3] is reported as 9.63.

For `COc1cccc2c1CC[C@H]1CN(CCn3c(=O)[nH]c4c(sc5ccc(C#N)nc54)c3=O)C[C@@H]21` [Example 108, dihydrochloride], the Kb in experiment [1] was 11.2 nM; in experiment [2], 3.39 nM. The “pA2 Dog Prostate [α-1A]” value in experiment [3] is recorded as 9.03.

Regarding `COc1cccc2c1CC[C@H]1CN(CCn3c(=O)[nH]c4c(sc5cnccc54)c3=O)C[C@@H]21` [Example 36, dihydrochloride], the values for the Kb in experiment [1] and in experiment [2] were 7.94 nM and 2.51 nM, respectively. Besides, the “pA2 Dog Prostate [α-1A]” value in experiment [3] worked out at 9.71.

For the origin of these results see patent publication US5597823A, “Tricyclic substituted hexahydrobenz [e]isoindole alpha-1 adrenergic antagonists” (priority 1995, dated 1997).
